Test results as given in patent publication US10221173B2, “Chemical compounds” (AstraZeneca AB, priority 2017, dated 2019).
In brackets after ≈: the same amount, converted by molar mass.

How the values were obtained:
[1] = Human plasma protein binding (equilibrium dialysis); assay type: in vitro ADME
[2] = Thermodynamic solubility (shake-flask); assay type: physicochemical; details: aqueous phosphate buffer, 25 °C, pH 7.4, aqueous buffer, thermodynamic from solid, phosphate buffer pH 7.4, 24 hours
[3] = biological target: recombinant human Estrogen Receptor alpha ligand binding domain (ER alpha-LBD (GST)) (Homo sapiens (Human), UniProt P03372); assay: ERα binding assay (LanthaScreen TR-FRET competition)
Sequence of recombinant human Estrogen Receptor alpha ligand binding domain (ER alpha-LBD (GST)) (P03372 307-554): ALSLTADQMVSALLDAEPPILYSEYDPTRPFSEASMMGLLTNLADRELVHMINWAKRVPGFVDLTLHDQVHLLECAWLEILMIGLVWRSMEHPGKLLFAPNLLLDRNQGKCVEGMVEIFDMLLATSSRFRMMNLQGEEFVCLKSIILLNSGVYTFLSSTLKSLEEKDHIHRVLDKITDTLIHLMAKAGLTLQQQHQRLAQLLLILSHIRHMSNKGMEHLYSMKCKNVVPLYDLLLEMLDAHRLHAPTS

[4] = biological target: Estrogen Receptor (ERα) in MCF-7 cells (Homo sapiens (Human), UniProt P03372); assay: MCF-7 ER down-regulation assay (immuno-fluorescence); assay type: cell-based; details: for % downregulation (in brackets): maximum downregulation
Sequence of Estrogen Receptor (ERα) in MCF-7 cells (P03372 whole entry): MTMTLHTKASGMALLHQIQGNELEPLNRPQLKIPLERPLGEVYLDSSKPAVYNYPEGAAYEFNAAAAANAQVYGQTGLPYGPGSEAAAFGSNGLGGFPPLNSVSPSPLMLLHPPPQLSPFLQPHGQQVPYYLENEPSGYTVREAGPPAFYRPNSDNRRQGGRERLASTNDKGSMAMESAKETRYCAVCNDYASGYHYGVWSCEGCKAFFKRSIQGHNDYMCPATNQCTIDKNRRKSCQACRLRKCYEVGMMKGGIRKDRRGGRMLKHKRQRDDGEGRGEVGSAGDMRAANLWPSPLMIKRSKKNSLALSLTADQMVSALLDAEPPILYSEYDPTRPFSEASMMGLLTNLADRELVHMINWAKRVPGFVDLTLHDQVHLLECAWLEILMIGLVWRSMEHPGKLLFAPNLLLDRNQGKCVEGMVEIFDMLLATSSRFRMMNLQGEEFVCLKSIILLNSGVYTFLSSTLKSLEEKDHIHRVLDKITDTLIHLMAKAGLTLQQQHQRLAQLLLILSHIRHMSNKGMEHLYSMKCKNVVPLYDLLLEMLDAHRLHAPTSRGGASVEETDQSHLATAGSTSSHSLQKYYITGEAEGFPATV

[5] = Log D (shake flask, 1-octanol/aqueous buffer); assay type: physicochemical; details: 1-octanol/aqueous buffer, pH 7.4, pH 7.4

SMILES	Human plasma protein binding (% free) [1] [% free]	solubility at 24 h [2] [µM]	IC50 [3] [nM]	IC50 [4] [nM]	% downregulation (in brackets) [4] [%]	logD [5]
C[C@@H]1Cc2c([nH]c3ccccc23)[C@@H](c2c(F)ccc(OCCN(C)CCCF)c2C(F)F)N1C[C@H](C)C(=O)O [Example 148, (S)-3-((1R,3R)-1-(2-(difluoromethyl)-6-fluoro-3-(2-((3-fluoropropyl)(methyl)amino)ethoxy)phenyl)-3-methyl-1,3,4,9-tetrahydro-2H-pyrido[3,4-b]indol-2-yl)-2-methylpropanoic acid]	10	788 (≈ 433 µg/mL)	1.1	0.42	68	1.5
C[C@@H]1Cc2c([nH]c3ccccc23)[C@@H](c2c(F)ccc(OCCNCCCF)c2Cl)N1CC(C)(C)C(=O)O [Example 131, 3-((1R,3R)-1-(2-chloro-6-fluoro-3-(2-((3-fluoropropyl)amino)ethoxy)phenyl)-3-methyl-1,3,4,9-tetrahydro-2H-pyrido[3,4-b]indol-2-yl)-2,2-dimethylpropanoic acid]	32	> 1000				1.2
C[C@@H]1Cc2c([nH]c3ccccc23)[C@@H](c2ccnc(OCCNCCCF)c2Cl)N1CC(F)(F)CO [Example 104, 3-((1R,3R)-1-(3-chloro-2-(2-((3-fluoropropyl)amino)ethoxy)pyridin-4-yl)-3-methyl-1,3,4,9-tetrahydro-2H-pyrido[3,4-b]indol-2-yl)-2,2-difluoropropan-1-ol]	2.8	431 (≈ 220 µg/mL)	0.72	0.17		3
Cc1c([C@@H]2c3[nH]c4ccccc4c3C[C@@H](C)N2CC(F)(F)F)ccnc1OCCNCCCF [Example 106, 3-fluoro-N-(2-((3-methyl-4-((1R,3R)-3-methyl-2-(2,2,2-trifluoroethyl)-2,3,4,9-tetrahydro-1H-pyrido[3,4-b]indol-1-yl)pyridin-2-yl)oxy)ethyl)propan-1-amine]	0.34	264 (≈ 126 µg/mL)	0.92	0.095		3.9
Cc1c(OCCNCCCF)ccc(F)c1[C@@H]1c2[nH]c3ccccc3c2CC(C)(C)N1C[C@H](C)C(=O)O [Example 134, (S)-3-((R)-1-(6-fluoro-3-(2-((3-fluoropropyl)amino)ethoxy)-2-methylphenyl)-3,3-dimethyl-1,3,4,9-tetrahydro-2H-pyrido[3,4-b]indol-2-yl)-2-methylpropanoic acid]	36	> 1000	5.8	1.6	85	0.6
CC(CN1[C@H](c2c(Cl)ccc(OCCNCCCF)c2Cl)c2[nH]c3ccc(F)cc3c2C[C@H]1C)C(=O)O (single isomer, unassigned) [Example 129]	23	953 (≈ 528 µg/mL)	8.9	2.6		1.5
C[C@@H]1Cc2c([nH]c3ccc(F)cc23)[C@@H](c2c(F)cnc(OCCNCCCF)c2F)N1CC1(F)CC1 [Example 109, N-(2-((3,5-difluoro-4-((1R,3R)-6-fluoro-2-((1-fluorocyclopropyl)methyl)-3-methyl-2,3,4,9-tetrahydro-1H-pyrido[3,4-b]indol-1-yl)pyridin-2-yl)oxy)ethyl)-3-fluoropropan-1-amine]	1.9	176 (≈ 89.5 µg/mL)	1.2	0.41		> 3.6
Cc1c(NCCNCCCF)ccc(F)c1[C@@H]1c2[nH]c3ccccc3c2C[C@@H](C)N1C[C@H](C)C(=O)O [Example 135, (S)-3-((1R,3R)-1-(6-fluoro-3-((2-((3-fluoropropyl)amino)ethyl)amino)-2-methylphenyl)-3-methyl-1,3,4,9-tetrahydro-2H-pyrido[3,4-b]indol-2-yl)-2-methylpropanoic acid]	32	> 1000	160	16		0.5
Cc1c(OCCNCCCF)ncnc1[C@@H]1c2[nH]c3ccccc3c2C[C@@H](C)N1CC(F)(F)CO [Example 115, 2,2-difluoro-3-((1S,3R)-1-(6-(2-((3-fluoropropyl)amino)ethoxy)-5-methylpyrimidin-4-yl)-3-methyl-1,3,4,9-tetrahydro-2H-pyrido[3,4-b]indol-2-yl)propan-1-ol]	11	983 (≈ 483 µg/mL)	1	0.31		2.1
Cc1c(OCCNCCCF)cncc1[C@@H]1c2[nH]c3ccccc3c2C[C@@H](C)N1CC(F)(F)F [Example 38, 3-fluoro-N-(2-((4-methyl-5-((1R,3R)-3-methyl-2-(2,2,2-trifluoroethyl)-2,3,4,9-tetrahydro-1H-pyrido[3,4-b]indol-1-yl)pyridin-3-yl)oxy)ethyl)propan-1-amine]	0.91			0.19		
Cc1c(OCCNCCCF)ccc(F)c1[C@@H]1c2[nH]c3ccccc3c2C[C@@H](C)N1CCC#N [Example 87, 3-((1R,3R)-1-(6-fluoro-3-(2-((3-fluoropropyl)amino)ethoxy)-2-methylphenyl)-3-methyl-1,3,4,9-tetrahydro-2H-pyrido[3,4-b]indol-2-yl)propanenitrile]	1.6	71 (≈ 33.1 µg/mL)	0.54	0.065		3.1
COc1ccc(OCCNCCCF)nc1[C@@H]1c2[nH]c3ccccc3c2C[C@@H](C)N1CC(F)(F)F [Example 56, 3-fluoro-N-(2-((5-methoxy-6-((1S,3R)-3-methyl-2-(2,2,2-trifluoroethyl)-2,3,4,9-tetrahydro-1H-pyrido[3,4-b]indol-1-yl)pyridin-2-yl)oxy)ethyl)propan-1-amine]	4.6	445 (≈ 220 µg/mL)	39	14		2.7
Cc1c(N(C)CCNCCCF)ccc(F)c1[C@@H]1c2[nH]c3ccccc3c2C[C@@H](C)N1C[C@H](C)C(=O)O [Example 136, (S)-3-((1R,3R)-1-(6-fluoro-3-((2-((3-fluoropropyl)amino)ethyl)(methyl)amino)-2-methylphenyl)-3-methyl-1,3,4,9-tetrahydro-2H-pyrido[3,4-b]indol-2-yl)-2-methylpropanoic acid]	2.1	328 (≈ 168 µg/mL)	2	> 300		1.1
COc1c(OCCNCCCF)cccc1[C@@H]1c2[nH]c3ccccc3c2C[C@@H](C)N1CC1(F)COC1 [Example 5, 3-fluoro-N-(2-(3-((1R,3R)-2-((3-fluorooxetan-3-yl)methyl)-3-methyl-2,3,4,9-tetrahydro-1H-pyrido[3,4-b]indol-1-yl)-2-methoxyphenoxy)ethyl)propan-1-amine]		357 (≈ 178 µg/mL)	45	25		
C[C@@H]1Cc2c([nH]c3ccccc23)[C@@H](c2cc(OCCNCCCF)ncn2)N1CC(F)(F)F [Example 113, 3-fluoro-N-(2-((6-((1S,3R)-3-methyl-2-(2,2,2-trifluoroethyl)-2,3,4,9-tetrahydro-1H-pyrido[3,4-b]indol-1-yl)pyrimidin-4-yl)oxy)ethyl)propan-1-amine]		< 1.6	17	> 300		4.1
COc1ccc(OC[C@H](C)NCCCF)cc1[C@@H]1c2[nH]c3ccccc3c2C[C@@H](C)N1CC(F)(F)CO [Example 49, 2,2-difluoro-3-((1R,3R)-1-(5-((S)-2-((3-fluoropropyl)amino)propoxy)-2-methoxyphenyl)-3-methyl-1,3,4,9-tetrahydro-2H-pyrido[3,4-b]indol-2-yl)propan-1-ol]		335 (≈ 174 µg/mL)	1.2	0.15		2.8
Cc1c(OCCNCCC(F)F)ccc(F)c1[C@@H]1c2[nH]c3ccc(F)cc3c2C[C@@H](C)N1C[C@@H](C)C(=O)O [Example 162, (R)-3-((1R,3R)-1-(3-(2-((3,3-difluoropropyl)amino)ethoxy)-6-fluoro-2-methylphenyl)-6-fluoro-3-methyl-1,3,4,9-tetrahydro-2H-pyrido[3,4-b]indol-2-yl)-2-methylpropanoic acid]	27	> 1000				1.8
Cc1ccc(OCCNCCCF)cc1[C@@H]1c2[nH]c3ccccc3c2C[C@@H](C)N1CC(F)(F)F [Example 17, 3-fluoro-N-(2-(4-methyl-3-((1R,3R)-3-methyl-2-(2,2,2-trifluoroethyl)-2,3,4,9-tetrahydro-1H-pyrido[3,4-b]indol-1-yl)phenoxy)ethyl)propan-1-amine]		68 (≈ 32.5 µg/mL)				
Cc1c(N(C)CCN(C)CCCF)ccc(F)c1[C@@H]1c2[nH]c3ccccc3c2C[C@@H](C)N1C[C@H](C)C(=O)O [Example 147, (S)-3-((1R,3R)-1-(6-fluoro-3-((2-((3-fluoropropyl)(methyl)amino)ethyl)(methyl)amino)-2-methylphenyl)-3-methyl-1,3,4,9-tetrahydro-2H-pyrido[3,4-b]indol-2-yl)-2-methylpropanoic acid]	19		51			
Cc1c(OCCNCCCF)ccc(F)c1[C@@H]1c2[nH]c3ccccc3c2C[C@@H](C)N1CC(F)(F)F [Example 33, 3-fluoro-N-(2-(4-fluoro-2-methyl-3-((1R,3R)-3-methyl-2-(2,2,2-trifluoroethyl)-2,3,4,9-tetrahydro-1H-pyrido[3,4-b]indol-1-yl)phenoxy)ethyl)propan-1-amine]		8 (≈ 3.96 µg/mL)				
